# Test results from US20230126310A1 (priority 2020, published 2023).
# Tested on: SARS-CoV-2
# Details: not given
Compound,IC50 [µM],pIC50
O=C(/C=C/c1ccc2ccccc2n1)c1ccncc1 [PFK-015],7.03,5.15

# Same assay, conditions: 10 µM
row,Compound,% Inh. (% Inhibition of SARS-CoV-2) [%]
1,CCCCCCN(CCCCCC)C(=O)Cc1c(-c2ccc(F)cc2)[nH]c2ccccc12 [FGIN-1-27],73.5
2,COc1cc2cc(c1Cl)N(C)C(=O)C[C@H](OC(=O)C(C)C)[C@]1(C)O[C@@H]1[C@H](C)[C@@H]1C[C@@](O)(NC(=O)O1)[C@H](OC)/C=C/C=C(\C)C2 [Ansamitocin P-3],62.6
3,Cc1ccnc(NC(=O)C(C)c2cccc(C(=O)c3ccccc3)c2)c1 (centres unmarked) [piketoprofen],72.4
4,CC(C)c1c2cc(-c3ccnc(NC4CCC(NC5CCOCC5)CC4)n3)ccc2nn1C (centres unmarked) [LY2857785],89.1
5,Cc1cc(-c2nc3cc(F)ccc3s2)ccc1NC(=O)[C@@H](N)CCCCN.Cl.Cl [phortress],67.1
6,COc1ccc(OC)c(CN(C(C)=O)c2cc(F)ccc2Oc2ccccc2)c1 [DAA-1106],91.0
7,COc1cc2ncnc(Nc3ccc(Cl)cc3F)c2cc1OC [ZM-306416],77.9
8,CN([C@@H](Cc1ccc(OS(=O)(=O)c2cccc3cnccc23)cc1)C(=O)N1CCN(c2ccccc2)CC1)S(=O)(=O)c1cccc2cnccc12 [KN-62],96.5
9,CC(C)(C)c1cc(O)c(C(C)(C)C)cc1O [BHQ],50.6
10,CC(C)(C)Nc1nc(Nc2ccc(C(N)=O)cc2)cc(N)c1C#N [TC-Mps1-12],65.3
11,N#Cc1ccc(N2N=C3c4ccc(C(=O)O)cc4CC[C@@H]3[C@@H]2C2CCCC2)cc1Cl [PF-03882845],58.6
12,TC-I-2014,97.8
13,O=C(/C=C/c1ccc2ccccc2n1)c1ccncc1 [PFK-015],101.3
14,O=C(Nc1ccccc1)N1CCC(Cc2cnc3ccccc3c2)CC1 [PF-750],85.2
15,COc1ccccc1C(=O)Nc1cccc(NC(=O)c2cccc(C)c2)c1 [ML-365],92.7
16,CC[C@@]1(O)C(=O)OCc2c1cc1n(c2=O)Cc2cc3c(N)cccc3nc2-1 [9-aminocamptothecin],80.3
17,CCCCC1CCC(c2nc(-c3ccncc3)no2)CC1 (centres unmarked) [PSN-375963],83.9
18,c1ccc(C(NCc2cccnc2)(c2ccccc2)c2ccccc2)cc1 [UCL-2077],70.7
19,CCCCCCCCCCCCCCCC[N+](C)(C)C.[Br-] [CETRIMONIUM BROMIDE],87.7
20,COc1ccc2nc3c(c(N)c2c1)CCCC3 [7-methoxytacrine],58.7
21,CCCCN1C[C@H](O)[C@@H](O)[C@H](O)[C@H]1CO [Miglustat (n-Butyldeoxynojirimycin)],64.4
22,CC(=O)[C@@]12O[C@](C)(c3ccccc3)O[C@@H]1C[C@H]1[C@@H]3CCC4=CC(=O)CC[C@]4(C)[C@H]3CC[C@@]12C [algestone-acetophenide],96.0
23,Cc1c(NC(=O)OC[C@@H]2COCCN2)cn2ncnc(Nc3ccc4c(cnn4Cc4cccc(F)c4)c3)c12 [BMS-599626],76.4
24,COc1cc2c(cc1OC)CN(C(=O)/C=C/c1c(-c3ccccc3)n(C)c3ncccc13)CC2 [SIS3],99.3
25,COC(=O)Nc1ccc(-c2nc(N3CCOCC3)c3cnn(C4CCN(Cc5cccnc5)CC4)c3n2)cc1 [WYE-687],105.8
26,COc1ccc2[nH]c3c(-c4cccc5ccccc45)nccc3c2c1 [SP-141],68.6
27,CNC(=O)c1cccc(NC(=O)N2CCC(Oc3ccccc3Cl)CC2)c1 [A-939572],78.8

row,Compound,% Inh. (% Inhibition of SARS-CoV-2) [%]
1,N#Cc1cnc2cnc(NCc3cccnc3)cc2c1Nc1ccc(F)c(Cl)c1 [TC-S-7006],100.7
2,COC(=O)Nc1ccc(-c2nc(N3CCOCC3)c3cnn(C4CCN(C(=O)OC)CC4)c3n2)cc1 [WYE-354],89.9
3,Exatecan Mesylate,70.1
4,O=C(Nc1ccc(S(=O)(=O)C(F)(F)F)cc1)C1=CCN(c2ncccc2C(F)(F)F)CC1 [A-784168],60.3
5,CC(C)(C)c1ccc(NC(=O)N2CCN(c3ncccc3Cl)CC2)cc1 [BCTC],86.4
6,Cc1ccc([N+](=O)[O-])cc1S(=O)(=O)N(C)/N=C/c1cnc2ccc(Br)cn12 [PIK-75],87.6
7,Cc1ccc(NC(=O)c2cccc(C(C)(C)C#N)c2)cc1Nc1ccc2ncn(C)c(=O)c2c1 [AZ-628],99.6
8,CC1(C)CC(=O)c2c(C(F)(F)F)nn(-c3ccc(C(N)=O)c(N[C@H]4CC[C@H](OC(=O)CN)CC4)c3)c2C1 [PF-04929113 (SNX-5422)],91.3
9,OCCCNc1cc(-c2ccnc(Nc3cccc(Cl)c3)n2)ccn1 [CGP-60474],54.4
10,Nc1nc(OCC2CCCCC2)c2[nH]cnc2n1 [NU-2058],51.9
11,COc1ccc(-c2csc(NC(=O)[C@H]3CCCCN3S(=O)(=O)c3ccc(C)cc3)n2)cc1 [ML-277],99.3
12,CCC(=O)N1CCN(c2ccc(-n3c(=O)ccc4cnc5ccc(-c6cnc7ccccc7c6)cc5c43)cc2C(F)(F)F)CC1 [Torin 1],75.3
13,N#Cc1ccc(-c2csc(NN=C3CCCC3)n2)cc1 [remodelin],99.4
14,Cc1nc(NC(=O)N2CCC[C@H]2C(N)=O)sc1-c1csc(C(C)(C)C)n1 [A66],54.4
15,Nc1cc(C(F)(F)F)c(-c2cc(N3CCOCC3)nc(N3CCOCC3)n2)cn1 [BKM120 (NVP-BKM120)],97.6
16,Cc1ccc(C(=O)N(CCCN)[C@@H](c2oc3cc(Cl)ccc3c(=O)c2Cc2ccccc2)C(C)C)cc1 [SB-743921],78.9
17,CC(C)(C)c1cc(C(=O)/C(C#N)=N/Nc2cccc(Cl)c2)no1 [ESI-09],78.0
18,OC12C3C4CC5C6C4C1C6C(C53)N2CCc1cccc(F)c1 (centres unmarked) [TC1],53.2
19,O=C1NC(=O)c2cc(Nc3ccc(F)cc3)c(Nc3ccc(F)cc3)cc21 [CGP-53353],86.1
20,Clc1ccc(N/N=C(\c2ccccc2)c2ccccn2)nc1 [JIB04 (NSC693627)],106.4
21,COc1cc2nc(C3CC3)nc(N3CCN(c4ccccc4OC)CC3)c2cc1OC [ML314],87.7
22,CNc1ncc2cc(-c3cc(NC(=O)NCCC(C)(C)C)c(F)cc3C)c(C)nc2n1 [LY3009120],101.6
23,O=C1NC(=O)c2cc(Nc3ccccc3)c(Nc3ccccc3)cc21 [CGP-52411],94.5
24,CCCCN1[C@@H]2CC[C@H]1CC(OC(c1ccc(F)cc1)c1ccc(F)cc1)C2 (some centres unmarked) [JHW-007],93.1
25,COCCN1CCN(Cc2ccc(-c3n[nH]c4c3C(=O)c3c(NC(=O)NN5CCOCC5)cccc3-4)cc2)CC1 [RGB-286638 (free base)],70.2
26,CC(C)(C)n1nc(-c2cccc3ccccc23)c2c(N)ncnc21 [1-naphthyl-PP1],94.1
27,Nc1cccc(CNC(=O)c2ccc(Oc3ccc(OCc4cccc(F)c4)cc3)nc2)c1 [YM-244769],60.4
